Assay [1] deals with Htelo-C (DNA, i motif) TAACCCTAACCCTAACCCTAACCCTAA
The assay can be described thus: bio-layer interferometry. The settings on record: 50 mM KCl; 50 mM Tris-HCl, 2% DMSO, 0.05% P20; pH 5.5 (also pH 7.5); tested to 100 µM. For orientation: In BLI a coated tip is dipped into the sample, and binding shifts an interference pattern.

Assay [2] has as its system c-myc (DNA, i motif) TCCCCACCTTCCCCACCCTCCCCACCCTCCCCA
The assay can be described thus: bio-layer interferometry. As to conditions: 50 mM KCl; 50 mM Tris-HCl, 2% DMSO, 0.05% P20; pH 5.5 (also pH 7.5); tested to 100 µM.

The test system of assay [3] is ssDNA (DNA, single strand) GGCATAGTGCGTGGGCG
Description: bio-layer interferometry. The settings on record: 50 mM KCl; 50 mM Tris-HCl, 2% DMSO, 0.05% P20; tested up to 100 µM.

Assay [4] relates to HP-GC (DNA, hairpin) CGCGCGCGTTTTCGCGCGCG
The assay can be described thus: bio-layer interferometry. As to conditions: 50 mM KCl; 50 mM Tris-HCl, 2% DMSO, 0.05% P20; tested up to 100 µM.

Assay [5] relates to DAP-Mut (DNA, single strand) CTACCGCTAACGCCTTCGCTCTCGCTTTC
The assay can be described thus: bio-layer interferometry. As to conditions: 50 mM KCl; 50 mM Tris-HCl, 2% DMSO, 0.05% P20; tested up to 100 µM.

Assay [6] has as its system HRAS (DNA, i motif) CGCCCGTGCCCTGCGCCCGCAACCCGA
Description: CD melting, heating ramp, 285 nm. As to conditions: 100 mM KCl; 10 mM LiAsO2Me2, pH 5.5; 2.5 µM oligo, 20 µM IMC-48.

Assay [7] relates to bcl-2 (DNA, i motif) CAGCCCCGCTCCCGCCCCCTTCCTCCCGCGCCCGCCCCT
The assay can be described thus: CD melting, heating ramp, 285 nm. The settings on record: 100 mM KCl; 10 mM LiAsO2Me2, pH 5.5; 2.5 µM oligo, 20 µM IMC-48.

The test system of assay [8] is HTelo-C (DNA, i motif) TAACCCTAACCCTAACCCTAACCCTAA
The assay can be described thus: CD melting, heating ramp, 285 nm. As to conditions: 100 mM KCl; 10 mM LiAsO2Me2, pH 5.5; 2.5 µM oligo, 20 µM IMC-48.

For assay [9], the system named is c-myc (DNA, i motif) TCCCCACCTTCCCCACCCTCCCCACCCTCCCCA
Description: CD melting, heating ramp, 285 nm. As to conditions: 100 mM KCl; 10 mM LiAsO2Me2, pH 5.5; 2.5 µM oligo, 20 µM IMC-48.

These results are taken from PMC9865601 (2023).

With `CC(C)CCC[C@@H](C)[C@H]1CC[C@H]2[C@@H]3CC[C@H]4C[C@H](NC(=O)C[N+]5(C)CCCCC5)CC[C@]4(C)[C@H]3CC[C@]12C`, the binding result in [1], in [2], in [3], in assay [4] and in assay [5] was “no” in each case. Moreover, the “∆Tm” value in [6] is −1.2 ± 1.1 °C; in assay [7] it was 0.2 ± 0.4 °C; in assay [8], −1.2 ± 0.5 °C; in assay [9], −0.5 ± 0.1 °C.
